Source: US6235717A, “Pharmaceutical compounds” (Glaxo Wellcome Inc., priority 1993, dated 2001)
pIC50: −log10 of the molar value. Starred links: 1 amine or outer side, 2 acyl side, 3 side chain; linkers in the order of their positions; H or OH if unused. Non-standard residues stand in square brackets, D forms with d. Residues, ends and D or L forms follow the SMILES beside them. ξ: configuration not given here. *: point of attachment. Phe(4-Br) = N[C@@H](Cc1ccc(Br)cc1)C(=O)O; Phe(4-Cl) = N[C@@H](Cc1ccc(Cl)cc1)C(=O)O; Phe(4-I) = N[C@@H](Cc1ccc(I)cc1)C(=O)O; 1Nal = N[C@@H](Cc1cccc2ccccc12)C(=O)O; Bta = N[C@@H](Cc1csc2ccccc12)C(=O)O; ξW = NC(Cc1c[nH]c2ccccc12)C(=O)O; Suc = O=C(CCC(=O)[*:2])[*:1]; Cbz = O=C(OCc1ccccc1)*; Bn = c1ccc(C*)cc1

molecular target: endothelin converting enzyme (ECE) (Sus scrofa, UniProt F1SU04); assay: "ECE" assay with porcine aortic "ECE" prep, fluorogenic substrate Suc-Ile-Ile-Trp-MCA; assay type: biochemical; settings: pH 7
Sequence (F1SU04 entry or part of it): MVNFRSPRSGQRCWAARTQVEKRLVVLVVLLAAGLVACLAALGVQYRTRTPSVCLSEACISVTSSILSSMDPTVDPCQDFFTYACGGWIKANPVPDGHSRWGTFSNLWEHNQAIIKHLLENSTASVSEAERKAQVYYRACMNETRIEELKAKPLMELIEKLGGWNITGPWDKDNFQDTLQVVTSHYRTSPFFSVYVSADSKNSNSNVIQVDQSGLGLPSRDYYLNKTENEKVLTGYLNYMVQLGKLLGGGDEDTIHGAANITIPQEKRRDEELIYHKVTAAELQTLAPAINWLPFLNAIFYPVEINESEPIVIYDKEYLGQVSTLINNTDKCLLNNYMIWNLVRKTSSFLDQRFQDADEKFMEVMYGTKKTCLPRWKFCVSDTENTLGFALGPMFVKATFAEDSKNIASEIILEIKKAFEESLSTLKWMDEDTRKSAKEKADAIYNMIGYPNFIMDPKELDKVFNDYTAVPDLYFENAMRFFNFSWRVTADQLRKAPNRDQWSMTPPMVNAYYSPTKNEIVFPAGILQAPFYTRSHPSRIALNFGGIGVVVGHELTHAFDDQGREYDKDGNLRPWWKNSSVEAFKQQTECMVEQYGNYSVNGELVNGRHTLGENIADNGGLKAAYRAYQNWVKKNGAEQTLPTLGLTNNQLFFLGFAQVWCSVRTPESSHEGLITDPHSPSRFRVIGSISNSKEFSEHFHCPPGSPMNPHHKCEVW
Experimental: IC50 values were determined as follows:
Porcine Aortic "ECE" Prep
Porcine aortas (22-25) were obtained fresh from a local slaughterhouse and delivered in cold PBS on ice. The aortas were cut open, rinsed with cold PBS and the endothelial cell layer scraped into cold PBS using a scalpel. The endothelial cells were pelleted by centrifugation, rinsed once with cold PBS, and repelleted. The pellet was lysed by addition of 10 volumes of 10 mM Tris-HCl, pH 7.0, containing protease inhibitors and DTS, followed by brief sonication and homogenization. The lysate was centrifuged at 100,000 g for 1 hour and the supernatant applied to a MONOQ FPLC anion exchange column equilibrated in 10 mM Tris-HCl, pH 7.0 (buffer A) which was then developed with an increasing gradient of NaCl in buffer A. The active fractions were aliquoted and stored at -70° C.
The ECE assay was performed in 96-well microplates in a total volume of 200μ/well. The assay cocktail contains 100 mM Tris-HCl, pH 7.0, 20 mM CaCl2, 80 μM substrate (Suc-Ile-Ile-Trp-MCA), enzyme and test compounds. The test compounds were preincubated with the enzyme for 15-20 minutes before initiation of the assay by addition of the substrate. The assay was incubated overnight at 37° C. and the fluorescence intensity caused by the release of AMC was determined using a fluorescence microplate reader (EX360 nm/EM460 nm). IC50 values for compounds were determined by constructing concentration-effect curves for the inhibition of enzyme activity. Concentrations on the linear portion of the inhibition curve were used to determine the IC50 utilizing a Hill plot.

Structure (SMILES) | pIC50
O=C[C@H](Cc1c[nH]c2ccccc12)NC(=O)[C@H](Cc1cccc2ccccc12)NC(=O)[C@H](Cc1ccc(Br)cc1)NC(=O)OCc1ccccc1 [Example 37, N-Benzyloxycarbonyl-S-p-bromophenylalanyl-S-1'naphthylalanyl-1-S-formyl-1-(1H-indol-3-yl-methyl)-methylamide] (Cbz-[Phe(4-Br)]-[1Nal]-Trp-aldehyde) | 8.15
O=C[C@H](Cc1c[nH]c2ccccc12)NC(=O)[C@H](Cc1cccc2ccccc12)NC(=O)[C@H](Cc1ccc(I)cc1)NC(=O)OCc1ccccc1 [Example 40, N-Benzyloxycarbonyl-S-p-iodophenylalanyl-S-1'naphthylalanyl-1-S-formyl-1-(1H-indol-3-yl-methyl)-methylamide] (Cbz-[Phe(4-I)]-[1Nal]-Trp-aldehyde) | 8.00

same assay, conditions: porcine aortic endothelial cell ECE prep; 80 μM Suc-Ile-Ile-Trp-MCA; 15-20 min preincubation; overnight at 37° C.; pH 7.0; AMC fluorescence

pIC50 | Structure (SMILES)
6.70 | CC[C@H](C)[C@H](NC(=O)OCc1ccccc1)C(=O)N[C@H](C(=O)N[C@H](C=O)Cc1c[nH]c2ccccc12)[C@@H](C)CC [Example 15, N-Benzyloxycarbonyl-S-isoleucyl-S-isoleucine 1-S-formyl-2-(1H-indol-3-yl]ethylamide] (Cbz-Ile-Ile-Trp-aldehyde)
6.40 | CC[C@H](C)[C@H](NC(=O)OCc1ccccc1)C(=O)N[C@H](C(=O)N[C@H](C=O)Cc1ccccc1)[C@@H](C)CC [Example 16, N-Benzyloxycarbonyl-S-isoleucyl-S-isoleucine 1-S-formyl-2-phenyl-ethylamide] (Cbz-Ile-Ile-Phe-aldehyde)
5.36 | CC[C@H](C)[C@H](NC(=O)OCc1ccccc1)C(=O)N[C@H](C(=O)N[C@H](C=O)CC(C)C)[C@@H](C)CC [Example 17, N-Benzyloxycarbonyl-S-isoleucyl-S-isoleucine 1-S-formyl-3-methyl-butylamide] (Cbz-Ile-Ile-Leu-aldehyde)
6.22 | CC[C@H](C)[C@H](NC(=O)OCc1ccccc1)C(=O)N[C@H](C(=O)N[C@H](C=O)Cc1csc2ccccc12)[C@@H](C)CC [Example 18, N-Benzyloxycarbonyl-S-isoleucyl-S-isoleucine 1-S-formyl-2-(benzo-thien-3-yl)ethylamide] (Cbz-Ile-Ile-[Bta]-aldehyde)
8.00 | O=C[C@H](Cc1c[nH]c2ccccc12)NC(=O)[C@H](Cc1ccc(OCc2ccccc2)cc1)NC(=O)[C@H](Cc1ccc(Br)cc1)NC(=O)OCc1ccccc1 [Example 19, N-Benzyloxycarbonyl-S-p-bromophenylalnyl-S-(O-benzyl)tyrosyl-1-S-formyl-1-(1H-indol-3-yl-methyl)-methylamide] (Cbz-[Phe(4-Br)]-Tyr(Bn)-Trp-aldehyde)
5.96 | CC[C@H](C)[C@H](NC(=O)[C@H](Cc1ccccc1)NC(=O)OCc1ccccc1)C(=O)N[C@H](C=O)[C@@H](C)CC [Example 20, N-Benzyloxycarbonyl-S-phenylalanyl-S-isoleucyl-1-S-formyl-1-(S)-1-methylpropylmethylamide] (Cbz-Phe-Ile-Ile-aldehyde)
5.92 | CC[C@H](C)[C@@H](C=O)NC(=O)[C@H](Cc1ccccc1)NC(=O)[C@H](C)NC(=O)OCc1ccccc1 [Example 21, N-Bezyloxycarbonyl-S-alanyl-S-phenylalanyl-1-S-formyl-1-(2-S-butyl)-methylamide] (Cbz-Ala-Phe-Ile-aldehyde)
5.40 | CCC(C)C(C=O)NC(=O)C(NC(=O)C(NC(=O)OCc1ccccc1)C(C)CC)C(C)CC [Example 22, N-Benzyloxycarbonyl-S-isoleucyl-S-isoleucyl-1-S-formyl-1-(S)-1-methylpropyl)-methylamide] (Cbz-Ile-Ile-Ile-aldehyde; configuration not given here)
5.82 | CC[C@H](C)[C@H](NC(=O)[C@@H](NC(=O)OCc1ccccc1)C(C)C)C(=O)NC(C=O)Cc1c[nH]c2ccccc12 (stereo partly drawn) [Example 24] (Cbz-Val-Ile-[ξW]-aldehyde)
6.52 | CC[C@H](C)[C@H](NC(=O)[C@H](Cc1ccccc1)NC(=O)OCc1ccccc1)C(=O)N[C@H](C=O)Cc1c[nH]c2ccccc12 [Example 25, N-Benzyloxycarbonyl-S-phenylalanyl-S-isoleucyl-1-S-formyl-1-(1H-indol-3-yl-methyl)-methylamide] (Cbz-Phe-Ile-Trp-aldehyde)
5.82 | C[C@H](NC(=O)OCc1ccccc1)C(=O)N[C@@H](Cc1ccccc1)C(=O)N[C@H](C=O)Cc1c[nH]c2ccccc12 [Example 26, N-Benzyloxycarbonyl-S-alanyl-S-phenylalanyl-1-S-formyl-1-(1H-indol-3-yl-methyl)-methylamide] (Cbz-Ala-Phe-Trp-aldehyde)
6.30 | CCC(C)C(NC(=O)OCc1ccccc1)C(=O)NC(Cc1ccccc1)C(=O)NC(C=O)Cc1c[nH]c2ccccc12 (stereo not drawn) [Example 27, N-Benzyloxycarbonyl-S-isoleucyl-S-phenylalanyl-1-S-formyl-1-(1H-indol-3-yl-methyl)-methylamide] (Cbz-Ile-Phe-Trp-aldehyde; configuration not given here)
6.70 | CCC(C)C(NC(=O)C(CC(C)C)NC(=O)OCc1ccccc1)C(=O)NC(C=O)Cc1c[nH]c2ccccc12 (stereo not drawn) [Example 28] (Cbz-Leu-Ile-Trp-aldehyde; configuration not given here)
6.70 | CC[C@H](C)[C@H](NC(=O)OCc1ccccc1)C(=O)N[C@H](C(=O)N[C@H](C=O)Cc1c[nH]c2ccccc12)C(C)C [Example 29, N-Benzyloxycarbonyl-S-isoleucyl-S-valyl-1-S-formyl-1-(1H-indol-3-yl-methyl)-methylamide] (Cbz-Ile-Val-Trp-aldehyde)
6.70 | CC[C@H](C)[C@H](NC(=O)OCc1ccccc1)C(=O)N[C@@H](Cc1c[nH]c2ccccc12)C(=O)N[C@H](C=O)Cc1c[nH]c2ccccc12 [Example 30, N-Benzyloxycarbonyl-S-isoleucyl-S-tryptophanyl-1-S-formyl-1-(1H-indol-3-yl-methyl)-methylamide] (Cbz-Ile-Trp-Trp-aldehyde)
7.00 | O=CC(Cc1c[nH]c2ccccc12)NC(=O)C(Cc1ccccc1)NC(=O)C(Cc1ccccc1)NC(=O)OCc1ccccc1 (stereo not drawn) [Example 32, N-Benzyloxycarbonyl-S-phenylalanyl-S-phenylalanyl-1-S-formyl-1-(1H-indol-3-yl-methyl)-methylamide] (Cbz-Phe-Phe-Trp-aldehyde; configuration not given here)
6.70 | CC[C@H](C)[C@H](NC(=O)OCc1ccccc1)C(=O)N[C@H](C(=O)N[C@H](C=O)Cc1ccc(O)cc1)[C@@H](C)CC [Example 33, N-Benzyloxycarbonyl-S-isoleucyl-S-isoleucyl-1-S-formyl-1-(4-hydroxy-benzyl)-methylamide] (Cbz-Ile-Ile-Tyr-aldehyde)
8.10 | O=CC(Cc1c[nH]c2ccccc12)NC(=O)[C@H](Cc1cccc2ccccc12)NC(=O)[C@H](Cc1c[nH]c2ccccc12)NC(=O)OCc1ccccc1 (stereo partly drawn) [Example 34, N-Benzyloxycarbonyl-S-tryptophanyl-S-1'naphthylalanyl-1-S-formyl-1-(1H-indol-3-yl-methyl)-methylamide] (Cbz-Trp-[1Nal]-[ξW]-aldehyde)
7.52 | O=C[C@H](Cc1c[nH]c2ccccc12)NC(=O)[C@H](Cc1ccc(OCc2ccccc2)cc1)NC(=O)[C@H](Cc1c[nH]c2ccccc12)NC(=O)OCc1ccccc1 [Example 36, N-Benzyloxycarbonyl-S-tryptophanyl-S-(O-benzyl)tyrosyl-1-S-formyl-1-(1H-indol-3-yl-methyl)-methylamide] (Cbz-Trp-Tyr(Bn)-Trp-aldehyde)
7.82 | O=C[C@H](Cc1ccc(Cl)cc1)NC(=O)[C@H](Cc1ccc(OCc2ccccc2)cc1)NC(=O)[C@H](Cc1cccc2ccccc12)NC(=O)OCc1ccccc1 [Example 39, N-Benzyloxycarbonyl-S-1'naphthylalanyl-S-(O-benzyl)tyrosyl-1-S-formyl-1-(4-chlorophenylmethyl)-methyloamide] (Cbz-[1Nal]-Tyr(Bn)-[Phe(4-Cl)]-aldehyde)
5.00 | C#CC(=O)C(Cc1c[nH]c2ccccc12)NC(=O)[C@@H](NC(=O)[C@@H](NC(=O)OCc1ccccc1)[C@@H](C)CC)[C@@H](C)CC (stereo partly drawn) [Example 49, N-Benzyloxycarbonyl-L-isoleucyl-L-isoleucine-L_N-[1[2-propynoyl]2-(1H-indol-3-yl)ethyl]amide]
5.00 | CC[C@H](C)[C@H](NC(=O)OCc1ccccc1)C(=O)N[C@H](C(=O)NC(C=NNC(N)=O)Cc1c[nH]c2ccccc12)[C@@H](C)CC (stereo partly drawn) [Example 56, N-Benzyloxycarbonyl-L-isoleucyl-L-isoleucine-L-N-[1[semicarbazonomethyl]2-(1H-indol-3-yl)ethyl]amide]
7.00 | CC[C@H](C)[C@H](NC(=O)CC(c1ccccc1)c1ccccc1)C(=O)N[C@H](C(=O)NC(C=O)Cc1c[nH]c2ccccc12)[C@@H](C)CC (stereo partly drawn) [Example 58]
6.00 | CC[C@H](C)[C@H](NC(C)=O)C(=O)N[C@H](C(=O)NC(C=O)Cc1c[nH]c2ccccc12)[C@@H](C)CC (stereo partly drawn) [Example 60] (Ac-Ile-Ile-[ξW]-aldehyde)
6.10 | CC[C@H](C)[C@H](NC(=O)CCC(=O)O)C(=O)N[C@H](C(=O)N[C@H](C=O)Cc1c[nH]c2ccccc12)[C@@H](C)CC [Example 61] (Suc-Ile-Ile-Trp-aldehyde)
